Experimental data taken from US4956357A (priority 1984, dated 1990).
≈ marks a conversion by molar mass, not a printed value.

Legend:
gonadotropin = conditions: in vivo; cited from earlier work
male external genitalia = test: Use of DHT-hep as an androgen (development of male external genitalia); assay type: in vivo, human
Excerpt: DHT-hep was given to two patients for the purpose of stimulating development of the male external genitalia. One was a person with hypogonadotrophic hypogonadism. […] The second patient was a child in early puberty with qynecomastia.

LH [1] = test: 24-hour urinary LH; assay type: in vivo, human; conditions: after 1 week of treatment; before 13.0±1.3
Protocol: (§1) The patients were given 200 mg DHT-hep in sesame oil intramuscularly. […] Subsequent testing was at 2, 3 and 4 weeks, and then just prior to each dose of DHT-hep. […] In two boys, the dose of DHT-hep was increased to 400 mg. Treatment lasted 16 weeks. The patients were examined before each injection of DHT-hep and at two months and six months after therapy. Patients' unpaired, or when appropriate, paired tests were used to determine significant differences (p less than 0.05). Results were all expressed as mean±Standard Error.

gynecomastia [2] = test: Treatment of gynecomastia in pubertal boys (breast diameter and area); assay type: in vivo, human
Protocol: (§2) Four pubertal boys, ages 14-16 years with gynecomastia which had lasted for more than 16 months and who all had breast diameters of more than 4 cm were studied. Their breast diameters ranged from 4.0 to 7.3 cm and breast areas from 13.5 to 41.4 cm^2 with mean breast area (±SEM) 24.3±4.1 cm^2.
as §1

FSH [3] = test: 24-hour urinary FSH; assay type: in vivo, human; conditions: after 1 week of treatment; before 8.4±0.8
Protocol: as §1

LH [4] = test: Plasma LH after DHT-hep; assay type: in vivo, human
Protocol: as §2, §1

estradiol = test: Plasma estradiol after DHT-hep; assay type: in vivo, human; conditions: for mean estradiol level: before 23.8±3.2
Protocol: as §2, §1

testosterone = test: Plasma testosterone after DHT-hep; assay type: in vivo, human; conditions: for mean plasma testosterone: before 283.8±87.5
Protocol: as §2, §1

[5] = Plasma DHT after intramuscular DHT-hep; assay type: in vivo, human
Protocol: as §2, §1

human estrogen receptor = test: Binding to estrogen receptor; conditions: heptanoate ester
Solubility in sesame oil = assay type: physicochemical; conditions: organic solvent or mixture, 37° C., limit of solubility
Protocol: (This was the limit of solubility of DHT-hep in sesame oil at 37° C. The warm sesame oil mixture was filtered in a laminar flow hood through a 0.20 micron filter into sterile injection vials. The vials were sealed, tested for sterility and pyroqens, and stored at room temperature.

FSH [6] = test: Plasma FSH after DHT-hep; assay type: in vivo, human; conditions: for mean plasma FSH: before 190.5±50.7
Protocol: as §2, §1

gynecomastia [7] = conditions: treatment of gynecomastia; cited from earlier work
human androgen receptor = system: human androgen receptor
Excerpt: It is also believed that an androgen-action,rather than an estrogen action, acts to prevent breast enlargement.

gynecomastia [8] = conditions: alcoholic solution applied to the skin; cited from earlier work
[9] = cited from earlier work
[10] = child in early puberty with gynecomastia, 4 months
[11] = person, 200 mg/month i.m., 6 months
[12] = another set of tests, 10 adolescent patients
[13] = subject four, 200 mg every 3 wks, 2 mo. post treatment
[14] = subject one, 400 mg every 3 wks, 2 mo. post treatment
[15] = subject three, 200 mg every 2 wks, 2 mo. post treatment
[16] = subject two, 400 mg every 3 wks, 2 mo. post treatment
[17] = injections every two to three weeks
[18] = mean ± SE, two months after therapy

CCC(=O)O[C@H]1CC[C@H]2[C@@H]3CC[C@H]4CC(=O)CC[C@]4(C)[C@H]3CC[C@]12C [Dihydrotestosterone propionate]
duration of action (gonadotropin): one-to three
gonadotropin suppression (gonadotropin): not effective in gonadotropin suppression

CCCCCCC(=O)O[C@H]1CC[C@H]2[C@@H]3CC[C@H]4CC(=O)CC[C@]4(C)[C@H]3CC[C@]12C [DHT-hep, dihydrotestosterone heptanoate]
penile length change (male external genitalia; [10]): penile length increased significantly
pubic and auxiliary hair (male external genitalia; [10]): pubic and auxiliary hair increased
androgenic effects (male external genitalia; general statement): enlargement of the male genitalia, growth of pubic hair, growth of facial hair, and increase in height and weight
erections and ejaculations (male external genitalia; [11]): erections and ejaculations were reported
muscle mass (male external genitalia; [11]): significant increase in muscle mass
pubic hair (male external genitalia; [11]): Pubic hair increased
penile diameter (male external genitalia; person, hypogonadotrophic hypogonadism, 200 mg/month i.m., 6 months, from 1.5): 2.5 cm
penile length (male external genitalia; person, hypogonadotrophic hypogonadism, 200 mg/month i.m., 6 months, from 4 cm): 8 cm
24-hour urinary LH (LH [1]): 7.4±3 IU/day
breast size change (gynecomastia [2]; [12]): significant reduction in breast size
regression of breast tissue (gynecomastia [2]; intramuscular injections, four adolescent boys): regression of breast tissue in all four adolescent boys
mean breast area (gynecomastia [2]; mean ± SE, four boys, after 16 weeks of treatment, before 24.3±4.1, p less than 0.002): 7.0±1.5 cm^2
increase in breast size on follow-up (gynecomastia [2]; patient four, followed for nine months): no increase in breast size
decrease in breast area (gynecomastia [2]; range of four boys, 16 weeks): 66.6 to 77.5%
regrowth of breast tissue (gynecomastia [2]; six to nine months after therapy was discontinued): no regrowth of breast tissue
% Decrease in Breast Area (gynecomastia [2]; [13]): 70.1%
Breast Area (gynecomastia [2]; [13]): 4.0 cm^2
Breast Diameter (gynecomastia [2]; [13]): 2.3 cm
% Decrease in Breast Area (gynecomastia [2]; subject four, 200 mg every 3 wks, after 16 wks treatment): 70.1%
Breast Diameter (gynecomastia [2]; subject four, 200 mg every 3 wks, after 16 wks treatment, before 4.0): 2.3 cm
Breast Area (gynecomastia [2]; subject four, 200 mg every 3 wks, after 16 wks treatment, before 13.5): 4.0 cm^2
% Decrease in Breast Area (gynecomastia [2]; [14]): 75.5%
Breast Area (gynecomastia [2]; [14]): 6.0 cm^2
Breast Diameter (gynecomastia [2]; [14]): 2.6 cm
% Decrease in Breast Area (gynecomastia [2]; subject one, 400 mg every 3 wks, after 16 wks treatment): 75.2%
Breast Diameter (gynecomastia [2]; subject one, 400 mg every 3 wks, after 16 wks treatment, before 5.6): 2.7 cm
Breast Area (gynecomastia [2]; subject one, 400 mg every 3 wks, after 16 wks treatment, before 24.6): 6.1 cm^2
% Decrease in Breast Area (gynecomastia [2]; [15]): 77.5%
Breast Area (gynecomastia [2]; [15]): 4.0 cm^2
Breast Diameter (gynecomastia [2]; [15]): 2.3 cm
% Decrease in Breast Area (gynecomastia [2]; subject three, 200 mg every 2 wks, after 16 wks treatment): 77.5%
Breast Diameter (gynecomastia [2]; subject three, 200 mg every 2 wks, after 16 wks treatment, before 4.8): 2.3 cm
Breast Area (gynecomastia [2]; subject three, 200 mg every 2 wks, after 16 wks treatment, before 17.7): 4.0 cm^2
% Decrease in Breast Area (gynecomastia [2]; [16]): 69.9%
Breast Area (gynecomastia [2]; [16]): 12.6 cm^2
Breast Diameter (gynecomastia [2]; [16]): 3.3 cm
% Decrease in Breast Area (gynecomastia [2]; subject two, 400 mg every 3 wks, after 16 wks treatment): 66.6%
Breast Diameter (gynecomastia [2]; subject two, 400 mg every 3 wks, after 16 wks treatment, before 7.3): 4.2 cm
Breast Area (gynecomastia [2]; subject two, 400 mg every 3 wks, after 16 wks treatment, before 41.4): 13.9 cm^2
regrowth of breast tissue (gynecomastia [2]; two and six months after therapy was discontinued): No regrowth of breast tissue occurred in any subject
24-hour urinary FSH (FSH [3]): 2.9±0.1 IU/day
plasma LH change (LH [4]; [12]): reduction
plasma LH (LH [4]; [10]): suppressed
LH (LH [4]; injection, general statement): suppression
further suppression of plasma LH (LH [4]; plasma LH low before treatment in three patients): not statistically significant
LH (LH [4]; [13]): 14 ng/mL
LH (LH [4]; subject four, 200 mg every 3 wks, after 16 wks treatment, before 25): < 11 ng/mL
LH (LH [4]; [14]): < 11 ng/mL
LH (LH [4]; subject one, 400 mg every 3 wks, after 16 wks treatment, before less than 11): < 11 ng/mL
LH (LH [4]; [15]): 27 ng/mL
LH (LH [4]; subject three, 200 mg every 2 wks, after 16 wks treatment, before less than 11): < 11 ng/mL
LH (LH [4]; [16]): 19 ng/mL
LH (LH [4]; subject two, 400 mg every 3 wks, after 16 wks treatment, before 15): < 11 ng/mL
plasma estradiol change (estradiol; DHT-hep i.m., four boys): statistically significant decreases
plasma estradiol change (estradiol; [12]): reduction
Estradiol (estradiol; injection, general statement): suppression
maintenance of estradiol suppression (estradiol; [17]): maintained
mean estradiol level (estradiol; mean ± SE, 16 weeks): 12.8 ± 1.6 pg/mL
plasma estradiol (estradiol; [18]): 18.8 ± 2.5 pg/mL
mean estradiol level (estradiol; mean ± SE, two weeks): 10.8 ± 0.8 pg/mL
time of maximal suppression of estradiol (estradiol; post injection, all subjects): two
Estradiol (estradiol; [13]): 22 pg/mL
Estradiol (estradiol; subject four, 200 mg every 3 wks, after 16 wks treatment, before 30): < 10 pg/mL
Estradiol (estradiol; [14]): 12 pg/mL
Estradiol (estradiol; subject one, 400 mg every 3 wks, after 16 wks treatment, before 16): < 10 pg/mL
Estradiol (estradiol; [15]): 18 pg/mL
Estradiol (estradiol; subject three, 200 mg every 2 wks, after 16 wks treatment, before 28): 15 pg/mL
Estradiol (estradiol; [16]): 23 pg/mL
Estradiol (estradiol; subject two, 400 mg every 3 wks, after 16 wks treatment, before 21): 16 pg/mL
residual estradiol levels (estradiol; two of the four boys, LH and testosterone suppressed): significant estradiol levels persisted
estradiol suppression at 200 mg (estradiol; two subjects, 200 mg dose): not adequately suppressed
plasma testosterone change (testosterone; DHT-hep i.m., four boys): statistically significant decreases
plasma testosterone change (testosterone; [12]): reduction
plasma testosterone (testosterone; [10]): suppressed
Testosterone (testosterone; injection, general statement): suppression
maintenance of testosterone suppression (testosterone; [17]): maintained
mean plasma testosterone (testosterone; mean ± SE, 16 weeks): 33.8 ± 3.2 ng/dL
plasma testosterone (testosterone; [18]): 214.9 ± 34.8 ng/dL
mean plasma testosterone (testosterone; mean ± SE, two weeks): 29.5 ± 3.3 ng/dL
time of rebound of testosterone to pretreatment levels (testosterone; post injection): four
time of maximal suppression of testosterone (testosterone; post injection, all subjects): two
Testosterone (testosterone; [13]): 297 ng/dL
Testosterone (testosterone; subject four, 200 mg every 3 wks, after 16 wks treatment, before 517): 40 ng/dL
Testosterone (testosterone; [14]): 178 ng/dL
Testosterone (testosterone; subject one, 400 mg every 3 wks, after 16 wks treatment, before 129): < 25 ng/dL
Testosterone (testosterone; [15]): 244 ng/dL
Testosterone (testosterone; subject three, 200 mg every 2 wks, after 16 wks treatment, before 317): 34 ng/dL
Testosterone (testosterone; [16]): 140 ng/dL
Testosterone (testosterone; subject two, 400 mg every 3 wks, after 16 wks treatment, before 174): 36 ng/dL
DHT levels ([5]; injection, general statement): elevation
increase in plasma DHT ([5]; one week after injection of 200 mg DHT-hep): 5-8 fold
binding to human estrogen receptor (human estrogen receptor): not binding tightly
solubility (Solubility in sesame oil): 190 mg/mL (≈ 472 mM)
plasma FSH change (FSH [6]; DHT-hep i.m., four boys): statistically significant decreases
plasma FSH change (FSH [6]; [12]): reduction
FSH (FSH [6]; injection, general statement): suppression
mean plasma FSH (FSH [6]; mean ± SE, 16 weeks): 40.3 ± 7.3 ng/mL
plasma FSH (FSH [6]; [18]): 121.5 ± 17.4 ng/mL
mean plasma FSH (FSH [6]; mean ± SE, two weeks): 58.8 ± 18.5 ng/mL
FSH (FSH [6]; [13]): 150 ng/mL
FSH (FSH [6]; subject four, 200 mg every 3 wks, after 16 wks treatment, before 334): < 27 ng/mL
FSH (FSH [6]; [14]): 73 ng/mL
FSH (FSH [6]; subject one, 400 mg every 3 wks, after 16 wks treatment, before 96): 34 ng/mL
FSH (FSH [6]; [15]): 120 ng/mL
FSH (FSH [6]; subject three, 200 mg every 2 wks, after 16 wks treatment, before 175): 61 ng/mL
FSH (FSH [6]; [16]): 143 ng/mL
FSH (FSH [6]; subject two, 400 mg every 3 wks, after 16 wks treatment, before 157): 39 ng/mL

C[C@]12CC[C@H]3[C@@H](CCC4=CC(=O)CC[C@@]43C)[C@@H]1CC[C@@H]2O [testosterone]
breast size (gynecomastia [7]): increased breast size

C[C@]12CCC(=O)C[C@@H]1CC[C@@H]1[C@@H]2CC[C@]2(C)[C@@H](O)CC[C@@H]12 [DHT, dihydrotestosterone]
binding to human androgen receptor (human androgen receptor): high affinity
plasma DHT levels (systemic absorption) (gynecomastia [8]): elevations in its plasma levels
oral stability ([9]; oral): destroyed before reaching the circulatory system
half-life ([9]; parenteral): very short half-life
